Results as given in patent US10357556B2, “Methods and compositions for T cell generation and uses thereof” (priority 2016, dated 2019).

Experiments:
CD4+Foxp3+ Tregs = assay: Human MoDC - syngeneic CD4+ T cell co-culture; format: cell-based; conditions: cells from most subjects, regardless of genotype
Protocol: To generate monocyte-derived dendritic cell (MoDCs), human PBMCs were isolated from fresh whole blood the same day of harvest using Ficoll-Hypaque (GE Healthcare) gradient (density=1.070 g/ml), followed by monocyte enrichment using the Human Monocyte Isolation Kit II (Miltenyi). For differentiation into MoDCs, monocytes were incubated with recombinant human IL-4 and GM-CSF (Peprotech) every two days in complete RPMI 1640 (5% human AB serum, 50 U/ml penicillin, 50 μg/ml streptomycin, 2 mM L-glutamine, 1 mM sodium pyruvate, 1 mM HEPES, non-essential amino acids, […]). […]
(§1) Cells were incubated in 5% mouse serum for 15 min and stained for 20 min at 4° C. with either LIVE/DEAD fixable green or far red dead stain kit (Life Technologies), with empirically titrated concentrations of the following antibodies: PerCP-Cy5.5-conjugated anti-mouse CD4 (clone: RM4-5), PerCP-Cy5.5-conjugated anti-human CD4 (clone: OKT4), and/or PE-Cy7-conjugated anti-mouse CD4 (clone: RM4-5). […] Cell acquisition was performed on a BD FACS Calibur (BD Biosciences) or Miltenyi MACSQuant (Miltenyi), and data was analyzed using FlowJo software suite (TreeStar). For ELISAs, cell supernatant from in vitro DC-T cell co-culture were collected and mouse IL-10 and IL-17A were measured using commercially available kits (eBiosciences).

[1] = system: LC3-associated phagocytosis (LAP); assay: LC3-GFP accumulation in BMDCs (LAP activation); format: cell-based, mouse; conditions: Rubicon+/- BMDCs
Protocol: Quantification of LC3-GFP accumulation upon 2 h treatment of BMDCs with PBS, B. fragilis WT-OMV, ΔPSA-OMV or purified PSA in Rubicon^+/− or Rubicon^−/− DCs. Error bars represent S.E.M. **** p<0.0001. Data are representative of 3 independent experiments.

[2] = system: CD4+CD25- responder effector T cells (Teff); assay: In vitro T cell suppression assay; format: cell-based, mouse; conditions: Tregs from co-cultures with Atg16L1ΔCD11c BMDCs
Protocol: CD4^+CD25^+ Treg cells were purified from in vitro BMDC-T cell co-cultures using magnetic microbeads (Miltenyi). CD4^+CD25^− responder effector T cells (Teff) were isolated from mouse spleens, labeled with 2.5 μM CFSE for 10 min at 37° C. in the dark, washed, and incubated with Treg cells at various Treg:Teff ratios in the presence of 1 μg/ml anti-mouse CD3 (eBiosciences). Irradiated CD4-depleted mouse splenocytes served as antigen-presenting cells. Cultures were incubated for 48 and 72 hrs, cells were stained with specific antibodies and a viability dye, and analyzed by flow cytometry. Dilution of CFSE signal is a measure of proliferation, and inhibition of proliferation a measure of Treg activity.

[3] = system: CD4+Foxp3+ regulatory T cells (Tregs); assay: In vitro DC-T cell co-culture: pulsed BMDCs co-cultured with CD4+ T cells; format: cell-based, mouse
Protocol: Co-culture of bone marrow-derived dendritic cells (BMDCs) and CD4^+ T cells were performed as previously described (30, 32, 36). Briefly, BMDCs were generated from bone marrow progenitor cells isolated from femurs of WT or Atg16L1^ΔCD11c mice in the presence of 20 ng/ml GM-CSF (Miltenyi) in complete RPMI media 1640 (10% fetal bovine serum, 50 U/ml penicillin, 50 μg/ml streptomycin, 2 mM L-glutamine, 1 mM sodium pyruvate, 1 mM HEPES, and non-essential amino acids, and β-mercaptoethanol). BMDCs were pulsed with PBS, WT-OMVs (10 μg/ml), ΔPSA-OMVs (10 μg/ml) or pure PSA (50 μg/ml) for 18-22 hrs; OMVs with a protein content of 10 μg contain 50 μg of PSA. […]
as §1

Polysaccharide A [PSA]
Response (IL-10 among CD4+Foxp3+ Tregs) (CD4+Foxp3+ Tregs): respond to purified PSA | Accumulation of membrane-bound LC3-GFP (LC3-II) / LAP activation [1]: neither APSA-OMVs nor purified PSA are able to activate LAP | Treg suppressive activity [2]: does not require ATG16L1 to promote suppressive Treg activity | IL-10 production ([3]; ATG16L1-deficient (Atg16L1ΔCD11c) DCs): does not require ATG16L1 for its activity | IL-10 production among CD4+Foxp3- type 1 regulatory T cells ([3]; WT or Atg16L1ΔCD11c DCs): Neither WT-OMVs nor pure PSA have any effect
